# Assay results from ChEMBL document CHEMBL1201862, “PubChem BioAssay data set” (2004).
# Activity calls are given as the source filed them.
# How the values were obtained:
# [1] = target: T1, Short transient receptor potential channel 4 (Mus musculus, UniProt Q9QUQ5); assay: mouse TRPC4 channel activators, dose response, cell-based, HEK293 TRPC4/mu-opioid, Fluo-4 calcium (AID 434937); type: functional
# T1 sequence (Q9QUQ5 whole entry): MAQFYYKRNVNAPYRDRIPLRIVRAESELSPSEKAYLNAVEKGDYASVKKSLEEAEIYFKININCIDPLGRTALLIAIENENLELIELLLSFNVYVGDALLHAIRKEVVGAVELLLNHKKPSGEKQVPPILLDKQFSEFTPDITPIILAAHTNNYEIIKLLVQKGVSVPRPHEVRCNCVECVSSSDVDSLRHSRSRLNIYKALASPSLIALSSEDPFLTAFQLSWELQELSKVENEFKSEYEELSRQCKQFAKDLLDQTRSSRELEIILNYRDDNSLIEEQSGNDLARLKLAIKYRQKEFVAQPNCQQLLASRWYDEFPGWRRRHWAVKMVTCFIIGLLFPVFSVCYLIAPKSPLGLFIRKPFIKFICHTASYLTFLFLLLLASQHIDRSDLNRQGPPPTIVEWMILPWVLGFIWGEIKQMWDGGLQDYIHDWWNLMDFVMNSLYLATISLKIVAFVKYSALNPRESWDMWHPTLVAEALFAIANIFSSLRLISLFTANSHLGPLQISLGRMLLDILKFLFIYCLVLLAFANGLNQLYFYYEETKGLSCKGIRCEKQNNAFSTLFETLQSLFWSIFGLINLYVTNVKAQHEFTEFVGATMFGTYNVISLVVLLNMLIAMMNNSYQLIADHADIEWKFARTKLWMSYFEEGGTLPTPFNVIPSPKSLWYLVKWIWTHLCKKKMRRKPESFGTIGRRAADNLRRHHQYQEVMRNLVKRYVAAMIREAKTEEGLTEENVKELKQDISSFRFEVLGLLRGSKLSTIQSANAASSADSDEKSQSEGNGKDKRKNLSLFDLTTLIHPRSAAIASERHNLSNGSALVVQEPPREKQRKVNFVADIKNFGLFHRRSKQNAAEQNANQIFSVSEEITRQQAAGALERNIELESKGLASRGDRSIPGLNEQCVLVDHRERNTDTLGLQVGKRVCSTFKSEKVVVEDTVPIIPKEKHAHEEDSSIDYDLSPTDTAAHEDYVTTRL
# SUMO-activating enzyme = SUMO-activating enzyme (Homo sapiens, UniProt Q9UBT2); assay: inhibitors of in vitro SUMOylation cascade, primary screen, biochemical, HTRF, uHTS (AID 2006); type: protein-complex assay
# Sequence of SUMO-activating enzyme (Q9UBE0 whole entry): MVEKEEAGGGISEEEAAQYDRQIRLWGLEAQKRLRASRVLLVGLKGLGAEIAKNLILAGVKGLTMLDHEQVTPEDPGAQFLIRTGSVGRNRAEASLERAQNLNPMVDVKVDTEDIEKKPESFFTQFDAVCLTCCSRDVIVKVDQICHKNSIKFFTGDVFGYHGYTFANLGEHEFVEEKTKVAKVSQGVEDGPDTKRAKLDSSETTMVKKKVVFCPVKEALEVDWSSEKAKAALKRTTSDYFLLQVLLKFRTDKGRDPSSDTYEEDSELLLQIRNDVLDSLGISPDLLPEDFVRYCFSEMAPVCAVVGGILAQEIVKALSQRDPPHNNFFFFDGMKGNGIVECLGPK
# Sequence of SUMO-activating enzyme (Q9UBT2 whole entry): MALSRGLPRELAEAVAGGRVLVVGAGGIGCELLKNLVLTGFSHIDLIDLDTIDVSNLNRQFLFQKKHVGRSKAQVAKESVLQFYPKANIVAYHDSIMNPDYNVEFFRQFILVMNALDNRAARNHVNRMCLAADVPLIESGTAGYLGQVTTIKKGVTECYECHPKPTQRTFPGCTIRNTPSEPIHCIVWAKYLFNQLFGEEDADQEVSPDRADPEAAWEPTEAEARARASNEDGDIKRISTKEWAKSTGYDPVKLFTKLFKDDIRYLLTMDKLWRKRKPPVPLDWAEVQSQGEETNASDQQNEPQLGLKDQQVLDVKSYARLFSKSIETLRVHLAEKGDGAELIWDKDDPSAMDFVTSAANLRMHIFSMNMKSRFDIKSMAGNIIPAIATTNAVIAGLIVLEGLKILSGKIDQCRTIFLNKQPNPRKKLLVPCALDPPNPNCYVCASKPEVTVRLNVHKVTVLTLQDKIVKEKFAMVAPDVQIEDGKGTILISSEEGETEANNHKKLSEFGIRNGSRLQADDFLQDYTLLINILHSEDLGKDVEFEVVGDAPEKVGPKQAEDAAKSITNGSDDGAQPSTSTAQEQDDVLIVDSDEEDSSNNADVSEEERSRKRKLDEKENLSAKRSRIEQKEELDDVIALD
# [2] = target: Serine/threonine-protein kinase Chk1 (Homo sapiens, UniProt O14757); type: functional;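 also: measured as one member of a kinome-wide kinase profiling panel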
# Sequence of Serine/threonine-protein kinase Chk1 (O14757 whole entry): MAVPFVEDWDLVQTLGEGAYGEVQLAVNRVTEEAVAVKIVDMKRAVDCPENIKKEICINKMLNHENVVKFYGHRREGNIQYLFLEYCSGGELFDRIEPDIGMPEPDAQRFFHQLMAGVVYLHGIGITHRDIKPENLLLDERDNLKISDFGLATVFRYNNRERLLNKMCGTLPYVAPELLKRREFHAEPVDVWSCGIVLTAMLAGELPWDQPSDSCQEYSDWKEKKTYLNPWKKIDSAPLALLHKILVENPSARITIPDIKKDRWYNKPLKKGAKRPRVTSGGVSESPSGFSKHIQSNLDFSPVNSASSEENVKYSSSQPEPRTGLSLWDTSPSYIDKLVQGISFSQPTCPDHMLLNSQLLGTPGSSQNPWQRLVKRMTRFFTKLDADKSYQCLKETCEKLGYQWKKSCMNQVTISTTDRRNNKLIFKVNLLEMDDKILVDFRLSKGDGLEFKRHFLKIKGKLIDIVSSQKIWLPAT
# Hexokinase-1 = target: T2, Hexokinase-1 (Homo sapiens, UniProt P19367); assay: hexokinase 1 activators, dose response, selectivity assay for HKDC1 activator project, biochemical (AID 504762); type: functional
# T2 sequence (P19367 whole entry): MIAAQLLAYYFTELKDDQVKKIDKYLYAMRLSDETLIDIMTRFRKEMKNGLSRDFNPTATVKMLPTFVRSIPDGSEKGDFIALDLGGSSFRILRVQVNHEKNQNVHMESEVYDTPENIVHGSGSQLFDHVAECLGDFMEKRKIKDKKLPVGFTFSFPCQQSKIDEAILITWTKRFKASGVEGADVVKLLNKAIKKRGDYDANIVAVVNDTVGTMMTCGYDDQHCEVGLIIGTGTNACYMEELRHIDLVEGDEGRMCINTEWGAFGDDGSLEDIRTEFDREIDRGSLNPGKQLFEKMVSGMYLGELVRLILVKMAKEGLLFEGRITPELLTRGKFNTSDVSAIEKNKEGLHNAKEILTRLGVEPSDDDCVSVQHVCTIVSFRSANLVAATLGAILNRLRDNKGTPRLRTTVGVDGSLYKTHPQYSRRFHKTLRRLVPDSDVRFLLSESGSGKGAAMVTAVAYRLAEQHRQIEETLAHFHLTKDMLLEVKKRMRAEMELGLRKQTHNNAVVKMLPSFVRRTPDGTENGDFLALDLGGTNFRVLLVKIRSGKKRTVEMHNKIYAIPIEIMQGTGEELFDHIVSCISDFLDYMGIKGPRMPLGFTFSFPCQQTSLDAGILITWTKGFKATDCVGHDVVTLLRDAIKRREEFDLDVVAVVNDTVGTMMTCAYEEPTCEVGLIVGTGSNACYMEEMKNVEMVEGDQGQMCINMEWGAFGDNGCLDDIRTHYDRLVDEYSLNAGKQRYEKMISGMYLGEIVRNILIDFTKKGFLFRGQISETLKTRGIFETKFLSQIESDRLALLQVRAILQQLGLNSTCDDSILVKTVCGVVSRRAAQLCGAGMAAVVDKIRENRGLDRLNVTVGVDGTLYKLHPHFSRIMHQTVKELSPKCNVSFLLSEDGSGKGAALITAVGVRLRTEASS
# [3] = C. albicans growth with fluconazole, confirmation, fluorescence, retest (AID 2467); type: functional, cell-based
smiles,measurement,setting,value
CNC[C@H](Cc1ccccc1)NC[C@@H](Cc1cccc2ccccc12)NCCc1ccc(C)cc1,EC50,[1],9.44 µM (active)
O=C(Cc1ccccc1Cl)NC1(O)C(=O)c2ccccc2C1=O,IC50,SUMO-activating enzyme,26 µM (active)
Nc1c(-c2ccc(NC(=O)Nc3cccc(C(F)(F)F)c3)cc2)cnc2c(-c3ccc4c(c3)OCO4)cnn12,Ki,[2],> 3.16 µM (inactive)
CCN1C(=Cc2sc3ccccc3[n+]2C)C=Cc2cccc(C)c21,EC50,Hexokinase-1,> 80 µM (inactive)
same,EC50,[3],0.054 µM (active)
